Columns and labels:
Lysyl oxidase [1] = biological target: T1, Lysyl oxidase (Bos taurus, UniProt P33072); experiment: Kinetic investigation: dialysis of lysyl oxidase-inhibitor complexes against inhibitor-free buffer, recovery of activity; format: biochemical, bovine; conditions: for vt/vmax: preincubation at 10-fold IC50; for k−1: calculated from slopes; for kon: pH 8.2, from k−1 and IC50, read-out: k1 (association velocity constant) (converted)
T1 construct: The enzyme preparation was carried out at 4° C. with fresh material from bovine aorta; from tissue; host or cells: bovine aorta
T1 sequence (P33072 170-418): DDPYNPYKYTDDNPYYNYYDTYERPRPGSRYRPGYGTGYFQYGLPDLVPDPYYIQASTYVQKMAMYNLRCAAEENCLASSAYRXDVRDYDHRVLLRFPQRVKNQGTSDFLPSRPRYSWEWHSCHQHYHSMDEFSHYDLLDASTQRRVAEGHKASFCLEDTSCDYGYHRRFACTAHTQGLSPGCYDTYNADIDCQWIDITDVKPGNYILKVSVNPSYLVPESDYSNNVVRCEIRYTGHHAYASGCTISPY
Method: Lysyl oxidasee and lysyl oxidase inhibitors of the structural formulas (XX)-(XXIII) (Table 1) were coincubated at concentrations that were 10-fold over the respective IC50 of the inhibitor and were subsequently dialyzed against 0.5 M borax buffer at pH 8.2 without added inhibitor. The dialysis buffer was exchanged twice during the first hour and subsequently three times in hourly intervals. The volume against which was dialyzed was at least 100-fold greater than the volume of the lysyl oxidase preparation in the dialysis tube. After 2, 4, 5 und 19 h lysyl oxidase activity was measured as described in Example 2. In a parallel assay a dialysis with a non-inhibited lysyl oxidase preparation was carried out to determine the effect of spontaneous activity loss during dialysis and to obtain a reference value (100% activity, positive control). From the obtained change in time-dependent activity it was possible to calculate the dissociation velocity constants of the inhibitor compounds, the half life times of the enzyme-inhibitor complexes and the association velocity constants. In the following section it is derived how these kinetic parameters can be determined form the measurement of the reaction velocity with the inhibited fraction at the timepoint t (vt) and the reaction velocity with the positive control (vmax).
Derivations: During dialysis against buffer without inhibitor the complex (EI) consisting of enzyme (E) and inhibitor (I) decays with a dissociation constant of first k−1
The velocity of decay is proportional to the concentration of the enzyme-inhibitor complex:
Rearranging this equation and definite Integration from the initial enzyme-inhibitor-complex concentration ([EI]0) to the concentration of the complex at the measurement time point t ([EI]t) on the left side and from t=0 to t on the right side yields:
The ratio of the reaction velocity when the inhibited enzyme preparation is used at a measurement time point t (vt) to the reaction velocity when the positive control is used (vmax) is dependent on the proportion of the total enzyme concentration in the assay ([E]0) that is present as enzyme-inhibitor-complex concentration at a time point t ([EI]t). The following equation describes this relationship: […]
For reasons of simplification a variable Rt can be defined
Solving the above differential equation and substituting Rt into the equation one obtains: […]
By linear regression with ln Rt and t, k−1 can be determined as the coefficient of slope.
Using k−1 one can calculate the half-life time of the enzyme-inhibitor-complexes (t1/2) as:
To determine the kinetic association constant the equilibrium is considered:
At the particular inhibitor concentration (IC50) at which the reaction velocity is 50% of the reaction velocity of the positive control, the free enzyme concentration ([E]) is approximately equal to the concentration of the enzyme inhibitor complex ([EI])
By substitution into the equilibrium equation and by simple rearrangement one obtains a term for the association constant which is dependent on the dissociation constant determined above and on the IC50:
Results Tables 2a to 2d show the results from reaction velocity measurements at the time points after 0, 120, 270 and 1140 min of dialysis against an inhibitor-free buffer. The relative reaction velocities and the derived constants are provided. In addition, the results of a regression analysis according to Example 3 are provided, from which the kinetic constants from table 3 can be calculated. Results are shown for compounds (XX)-[…].

Lysyl oxidase [2] = biological target: T1, Lysyl oxidase; experiment: Lysyl oxidase inhibition, peroxidase-coupled fluorometric activity test; format: biochemical, bovine
Method: Lysyl oxidase was isolated form bovine aorta, modified according to Williams und Kagan (1985) Assessment of lysyl oxidase variants by urea gel electrophoresis: evidence against disulfide isomers as bases of the enzyme heterogeneity. Anal. Biochem. 149: 430-7, and Kagan und Sullivan (1982) Lysyl oxidase: preparation and role in elastin biosynthesis. Methods Enzymol. 82(Pt A): 637-50. The enzyme preparation was carried out at 4° C. with fresh material from bovine aorta. The aorta was homogenized for 90 seconds in 2.5. ml buffer per gram of tissue. The buffer consisted of 16 mM potassium phosphate, 150 mM sodium chloride and 1 mM phenylmethylsulfonylfluoride. The homogenized mixture was centrifuged for 20 minutes at 11,000 g. The homogenization was followed by a centrifugation step and was repeated with 150 mM sodium chloride buffer and 1 M urea buffer. The pellet that was obtained after centrifugation was homogenized in buffer plus 4 M urea, was stirred over night and centrifuged twice. The supernatants with the lysyl oxidase activity were stored each time.
To determine the specific enzyme activity of lysyl oxidase a coupled activity test with fluorescence was applied (modified according to nach Trackman P C, Zoski C G, Kagan, H M (1981) Development of a peroxidase-coupled fluorometric assay for lysyl oxidase. Anal. Biochem. 113: 336-342).
Into a 2 ml plastic cuvette the following reaction solution was pipetted:
The fluorescence of the reaction solution was determined at an excitation wavelength of 350 nm and measurement of emission was carried out at 425 nm at 37° C. Before the addition of the sample solution fluorescence was determined by calibration with 1 nmol hydrogen peroxide. This increase in fluorescence was equivalent to a turnover of 1 nmol 1,5-diaminopentane. As a positive control the time course of the increase in fluorescence when an equivalent volume of lysyl oxidase without inhibitor was added, was used. The development of fluorescence of the assay without the addition of lysyl oxidase used as a negative control. […]

[3] = regression analysis below Tables 2a-2d

Row | SMILES | Rt (Lysyl oxidase [1]; 0 min of dialysis) | ln Rt (Lysyl oxidase [1]; 0 min of dialysis) | vt/vmax (Lysyl oxidase [1]; 0 min of dialysis) | Rt (Lysyl oxidase [1]; 120 min of dialysis) | ln Rt (Lysyl oxidase [1]; 120 min of dialysis) | vt/vmax (Lysyl oxidase [1]; 120 min of dialysis) | Rt (Lysyl oxidase [1]; 270 min of dialysis) | ln Rt (Lysyl oxidase [1]; 270 min of dialysis) | vt/vmax (Lysyl oxidase [1]; 270 min of dialysis) | Rt (Lysyl oxidase [1]; 1,140 min of dialysis) | vt/vmax (Lysyl oxidase [1]; 1,140 min of dialysis) | k−1 (Lysyl oxidase [1]; Table 3) [h⁻¹] | kon (Lysyl oxidase [1]; Table 3) [M⁻¹ s⁻¹] | ln Rt (Lysyl oxidase [1]; 1,140 min of dialysis) | k−1 (dissociation velocity constant) (Lysyl oxidase [1]; [3]) [h⁻¹] | IC50 (Lysyl oxidase [2]; Table 1, lysyl oxidase from bovine aorta, 37° C., pH 8.2) [µM] | IC50 (Lysyl oxidase [2]; Table 3) [µM] | IC50 (Lysyl oxidase [2]; as quoted in titles of Tables 2a-2d) [µM] | residence time (Lysyl oxidase [1]; Table 3, from k−1, read-out: t1/2 (half-life time of the enzyme-inhibitor complex) (converted)) [min] | slope (linear regression of ln Rt against t) (Lysyl oxidase [1]; [3])
1 | COCCc1ccc(Oc2c(-n3ccnc3)cnn(-c3ccc(Cl)cc3)c2=O)cc1 [(XX), 2-(4-chlorophenyl)-5-(1H-imidazole-1-yl)-4-[4-(2-methoxyethyl)phenoxy]pyridazine-3(2H)-one] | 1 | 0 | 0 | 0.91 | −9.431 × 10^−2 | 9 × 10^−2 | 0.72 | −0.3285 | 0.28 | 0 | 1 | 0.053 | 13.6 | – | – | – | – | – | – | –
2 | O=c1c(Oc2ccc(-c3ccccc3)cc2)c(-n2ccnc2)cnn1-c1ccc(Cl)cc1Cl [(XXII), 4-(1,1′-biphenyl-4-yloxy)-2-(2,4-dichlorophenyl)-5-(1H-imidazole-1-yl)pyridazine-3(2H)-one] | 1 | 0 | 0 | 0.75 | −0.2877 | 0.25 | 0.64 | −0.4463 | 0.36 | 0.33 | 0.67 | 0.074 | 75 | −1.109 | 0.05344 | – | – | – | – | –
3 | CCCc1ccc(Oc2c(-n3ccnc3)cnn(-c3ccc(Cl)cc3)c2=O)cc1 [(XXIII), 2-(4-chlorophenyl)-5-(1H-imidazole-1-yl)-4-(4-propylphenoxy)pyridazine-3(2H)-one] | 0.84 | −0.1744 | 0.16 | 0.47 | −0.7550 | 0.53 | 0.37 | −0.9943 | 0.63 | 0.11 | 0.89 | 0.097 | 18.3 | −2.207 | 0.09694 | 1.47 | 1.47 | ~1.47 | 438 | −1.616×10^−3 1/min

Source: patent publication US20080293936A1, “Novel inhibitors of lysyl oxidase” (priority 2007, published 2008)
